Tested on: CHO-K1 cell strain
Experiment: Changes in intracellular Ca2+ concentration in CHO-K1 host cell not transfected (negative control)
Assay type: cell-based, Chinese hamster
Description: The specific method for measuring changes in the intracellular Ca^2+ concentration in the HA-ph01207#10-6 cell strain induced by CCK-8S (SEQ ID NO: 14) and the results are described below. The HA-ph01207#10-6 cell strain was seeded on a 96-well plate (a plate with a black wall and a transparent bottom) at a cell count of 2×10^4/100 μL medium/well and cultured at 37° C. in the presence of 5% CO2. As a medium, DMEM/F12 (Gibco) containing 10% fetal calf serum (Moregate) was used. On the following day, 50 μL of the medium was removed from each well, 50 μL of a loading buffer was added to each well, and the mixture was reacted at room temperature for 1.5 h, so that a fluorescent dye contained in the loading buffer should be taken up into the cell. The loading buffer was prepared by dissolving component A of the FLIPR Calcium 3 Assay Kit (Molecular Device) in a solution obtained by adding 0.1 mL of 500 mM probenecid (Sigma) to 9.9 mL of component B. After reaction, changes over time in the fluorescence intensity in each well after addition of CCK-8S (Peptide Institute, Inc.) were measured using the FLEX station (Molecular Device). Furthermore, similar measurement was performed for CCK-8NS (Peptide Institute, Inc.) and CCK-4 (Peptide Institute, Inc.). 0.52 mg of CCK-8S (SEQ ID NO: 14) was dissolved in 4.5 mL of 1% NaHCO3 (Wako) to prepare a solution having 0.1 mM concentration. 0.53 mg of CCK-8NS was dissolved in 0.50 mL of dimethyl sulfoxide (DMSO, Sigma), and then 4.50 mL of redistilled water H2O was added to prepare a solution having 0.1 mM concentration. 0.54 mg of CCK-4 was dissolved in 0.46 mL of DMSO, 4.09 mL of redistilled water was added to prepare a solution having 0.2 mM concentration. CCK-8S (SEQ ID NO: 14), CCK-8NS, and CCK-4 were diluted in phosphate-buffered physiological saline (PBS) to prepare 5 nM solutions, and 25 μL each was added (final concentration 1 nM) to perform measurement. As a positive control for including an increase in the intracellular Ca^2+ concentration, A23187 (Calbiochem) was used at a final concentration of 10 μM. As a negative control, the CHO-K1 cell strain used to prepare the HA-ph01207#10-6 cell strain as a host was used. Since the CHO-K1 cell strain was not transfected with the ph01207-expressing vector, the ph01207 gene product was not expressed.
Changes in the intracellular calcium (Ca^2+) concentration induced by CCK-8S were measured by a method similar to the method described in Example 5 using the 7tmHR stably-expressing strain and the hk01941 stably-expressing strain prepared in Example 7. As a control, a host cell not transfected with the 7tmHR-expressing vector or the hk01941-expressing vector was also used.
Cells were seeded in a 96-well plate (a plate with a black wall and a transparent bottom) at a cell count of 3×10^4/100 μL of medium/well and cultured overnight at 37° C. in a 5% CO2 incubator. On the following day, 50 μL of the medium was removed from each well, […] of a loading buffer was added to each well, and the mixture was reacted at room temperature for 1 h, so that a fluorescent dye contained in the loading buffer was taken up into the cell. The loading buffer was prepared by a method similar to the method described in Example 5. After reaction, changes over time in the fluorescence intensity in each well after addition of CCK-8S were measured using the FLEX station (Molecular Device). CCK-8S was used at a final concentration of 10 pM to 1 μM. Furthermore, as a positive control of the assay, A23187 was used at a final concentration of 20 μM.
Cells were seeded in a 96-well plate (a plate with a black wall and a transparent bottom) at a cell count of 3×10^4/100 μL of medium/well and cultured overnight at 37° C. in a 5% CO2 incubator. […]

| Compound | Change in intracellular Ca2+ concentration (fluorescence intensity) (CHO-K1 not transfected, A23187 10 μM (Example 5)) | Change in intracellular Ca2+ concentration (fluorescence intensity) (host cell CHO-K1 not transfected, A23187 20 μM (Examples 8, 9)) | Change in intracellular Ca2+ concentration (fluorescence intensity) (CHO-K1 not transfected, peptide 1 nM (Example 5)) | Change in intracellular calcium concentration after addition of CCK-8S (host cell not transfected with the expressing vector (Examples 8, 9)) |
| --- | --- | --- | --- | --- |
| CNc1ccc2oc(C[C@H]3O[C@@]4(CC[C@H]3C)O[C@H]([C@H](C)C(=O)c3ccc[nH]3)[C@H](C)C[C@H]4C)nc2c1C(=O)O [A23187] | increased | increased | – | – |
| cholecystokinin octapeptide sulfated form [CCK-8S] | – | – | not increased | no change |
